Experiments:
[1] = test system: GLXMAW (Soybean, Williams); experiment: Postemergence herbicidal evaluation; format: in vivo, Glycine max, (L.) Merr. cv Williams; settings: postemergence
How it was run: (§1)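 Scores (0–9) reflect plant stand, vigor, malformation, size, chlorosis and general appearance relative to control, read 4 to 5 weeks after treatment and averaged where tests were repeated. Application: about 0.0156–0.500 kg/ha sprayed at 40 psi onto two-week seedlings.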

[2] = test system: SAGPY (Arrowhead (Pygmaea)); experiment: Preemergence weed control under flooded paddy conditions; format: in vivo, Sagittaria pygmaea; settings: rated 3-4 weeks after treatment
How it was run: (§2)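 Visual injury scored 0-9 against control three to four weeks post-treatment, greenhouse-grown. Application: acetone/water (50/50) solutions dosed directly into flood water (1.5-3 cm over silt loam, planted top 0.5 cm), roughly 0.0313 to 0.500 kg/ha active ingredient.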

ZEAMX (Corn, Field) = experiment: Postemergence herbicidal evaluation; format: in vivo, Zea mays; settings: postemergence
How it was run: as §1

[3] = test system: ECHORC (Watergrass (Calif.)); experiment: Postemergence weed control under flooded paddy conditions; format: in vivo, Echinochloa oryzoides; settings: postemergence weeds, rated 3 to 4 weeks after treatment
How it was run: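 Herbicidal effect is judged by eye on a 0–9 scale versus control, 3–4 weeks after dosing. Dosing is into flood water kept 1.5–3 cm over the soil, at about 0.0313–0.500 kg/ha in aqueous/acetone 50/50 v/v, on 3–5 cm weeds and 1.5–2.5-leaf rice seedlings.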

ABUTH (Velvetleaf) = experiment: Preemergence herbicidal evaluation; format: in vivo, Abutilon theophrasti; settings: preemergence, rated 4-5 weeks after treatment, 0-9 scale
How it was run: (§3)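 Herbicidal effect scored visually, 0-9, at 4 to 5 weeks against a control; compound applied preemergence by aqueous acetone spray to seeded soil at about 0.0156 to 0.500 kg/ha.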

ECHCG (Barnyardgrass) = experiment: Preemergence herbicidal evaluation; format: in vivo, Echinochloa crus-galli; settings: preemergence, rated 4-5 weeks after treatment, 0-9 scale
How it was run: as §3

CYPSE (Flatsedge) = experiment: Preemergence weed control under flooded paddy conditions; format: in vivo, Cyperus serotinus; settings: rated 3-4 weeks after treatment
How it was run: as §2

AMBEL (Ragweed, Common) [4] = experiment: Postemergence herbicidal evaluation; format: in vivo, Ambrosia artemisifolia; settings: postemergence
How it was run: as §1

[5] = test system: IPOHE (Morningglory, Ivyleaf); experiment: Postemergence herbicidal evaluation; format: in vivo, Ipomoea hederacea; settings: postemergence
How it was run: as §1

[6] = test system: GLXMAW (Soybean, Williams); experiment: Preemergence herbicidal evaluation; format: in vivo, Glycine max, (L.) Merr. cv Williams; settings: preemergence, rated 4-5 weeks after treatment, 0-9 scale
How it was run: as §3

AMBEL (Ragweed, Common) [7] = experiment: Preemergence herbicidal evaluation; format: in vivo, Ambrosia artemisifolia; settings: preemergence, rated 4-5 weeks after treatment, 0-9 scale
How it was run: as §3

CASOB (Sicklepod) = experiment: Preemergence herbicidal evaluation; format: in vivo, Cassia obtusifolia; settings: preemergence, rated 4-5 weeks after treatment, 0-9 scale
How it was run: as §3

GALAP (Galium) = experiment: Preemergence herbicidal evaluation; format: in vivo, Galium aparine; settings: preemergence, rated 4-5 weeks after treatment, 0-9 scale
How it was run: as §3

SETVI (Foxtail, Green) = experiment: Preemergence herbicidal evaluation; format: in vivo, Setaria viridis; settings: preemergence, rated 4-5 weeks after treatment, 0-9 scale
How it was run: as §3

Q: With `CCOC(=O)CN1C(=O)C(CC(=O)OCCF)SC1=Nc1cc(-n2c(=O)cc(C(F)(F)F)n(C)c2=O)c(F)cc1Cl` (centres unmarked) [Compound 82, 2-{{2-Chloro-5-[3,6-dihydro-3-methyl-2,6-dioxo-4-(trifluoromethyl)-1(2H)-pyrimidinyl]-4-fluoro-phenyl}imino}-4-oxo-3,5-thiazolidinediacetic acid, 3-ethyl 2-fluoroethyl ester] as the compound, how does the GLXMAW herbicidal rating ([1]; rate 0.0158 kg/ha) read?
A: Its GLXMAW herbicidal rating is 8.5.

Q: And the GLXMAW herbicidal rating ([1]; rate 0.0315 kg/ha)?
A: The GLXMAW herbicidal rating was 9.0.

Q: And the GLXMAW herbicidal rating ([1]; rate 0.0630 kg/ha)?
A: Its GLXMAW herbicidal rating is 9.0.

Q: And the “SAGPY herbicidal effect rating” value ([2]; 0.0313 kg/ha)?
A: The value was 4.0.

Q: What about the “SAGPY herbicidal effect rating” value ([2]; 0.0625 kg/ha) of the same compound?
A: The value was 4.0.

Q: And the “SAGPY herbicidal effect rating” value ([2]; 0.1250 kg/ha)?
A: The value was 4.0.

Q: What about the “SAGPY herbicidal effect rating” value ([2]; 0.2500 kg/ha) of the same compound?
A: The value was 7.0.

Q: And the ZEAMX herbicidal rating (ZEAMX (Corn, Field); rate 0.0158 kg/ha)?
A: The ZEAMX herbicidal rating was 8.5.

Q: What about the ZEAMX herbicidal rating (ZEAMX (Corn, Field); rate 0.0315 kg/ha) of the same compound?
A: The ZEAMX herbicidal rating was 8.5.

Q: What about the ZEAMX herbicidal rating (ZEAMX (Corn, Field); rate 0.0630 kg/ha) of the same compound?
A: The ZEAMX herbicidal rating was 9.0.

Q: And the “Herbicidal rating ECHORC” value ([3]; Rate 0.0313 kg/ha)?
A: The value was 4.0.

Q: And the “Herbicidal rating ECHORC” value ([3]; Rate 0.0625 kg/ha)?
A: Its value is 4.0.

Q: What about the “Herbicidal rating ECHORC” value ([3]; Rate 0.1250 kg/ha) of the same compound?
A: Its value is 6.0.

Q: And the “Herbicidal rating ECHORC” value ([3]; Rate 0.2500 kg/ha)?
A: The value was 9.0.

Q: What about the ABUTH rating (ABUTH (Velvetleaf); 0.0156 kg/ha) of the same compound?
A: Its ABUTH rating is 3.0.

Q: And the ABUTH rating (ABUTH (Velvetleaf); 0.0313 kg/ha)?
A: Its ABUTH rating is 9.0.

Q: And the ABUTH rating (ABUTH (Velvetleaf); 0.0625 kg/ha)?
A: The ABUTH rating was 9.0.

Q: What about the ABUTH rating (ABUTH (Velvetleaf); 0.1250 kg/ha) of the same compound?
A: Its ABUTH rating is 9.0.

Q: And the ABUTH rating (ABUTH (Velvetleaf); 0.2500 kg/ha)?
A: The ABUTH rating was 9.0.

Q: And the ECHCG rating (ECHCG (Barnyardgrass); 0.0156 kg/ha)?
A: The ECHCG rating was 0.0.

Q: What about the ECHCG rating (ECHCG (Barnyardgrass); 0.0313 kg/ha) of the same compound?
A: Its ECHCG rating is 0.0.

Q: What about the ECHCG rating (ECHCG (Barnyardgrass); 0.0625 kg/ha) of the same compound?
A: The ECHCG rating was 0.0.

Q: What about the ECHCG rating (ECHCG (Barnyardgrass); 0.1250 kg/ha) of the same compound?
A: Its ECHCG rating is 3.0.

Q: And the ECHCG rating (ECHCG (Barnyardgrass); 0.2500 kg/ha)?
A: The ECHCG rating was 7.0.

Q: What about the “CYPSE herbicidal effect rating” value (CYPSE (Flatsedge); 0.0313 kg/ha) of the same compound?
A: Its value is 0.0.

Q: And the “CYPSE herbicidal effect rating” value (CYPSE (Flatsedge); 0.0625 kg/ha)?
A: Its value is 0.0.

Q: What about the “CYPSE herbicidal effect rating” value (CYPSE (Flatsedge); 0.1250 kg/ha) of the same compound?
A: The value was 2.0.

Q: And the “CYPSE herbicidal effect rating” value (CYPSE (Flatsedge); 0.2500 kg/ha)?
A: Its value is 4.0.

Q: And the AMBEL herbicidal rating (AMBEL (Ragweed, Common) [4]; rate 0.0158 kg/ha)?
A: The AMBEL herbicidal rating was 9.0.

Q: What about the AMBEL herbicidal rating (AMBEL (Ragweed, Common) [4]; rate 0.0315 kg/ha) of the same compound?
A: The AMBEL herbicidal rating was 9.0.

Q: And the AMBEL herbicidal rating (AMBEL (Ragweed, Common) [4]; rate 0.0630 kg/ha)?
A: The AMBEL herbicidal rating was 9.0.

Q: And the IPOHE herbicidal rating ([5]; rate 0.0158 kg/ha)?
A: Its IPOHE herbicidal rating is 9.0.

Q: And the IPOHE herbicidal rating ([5]; rate 0.0315 kg/ha)?
A: The IPOHE herbicidal rating was 9.0.

Q: And the IPOHE herbicidal rating ([5]; rate 0.0630 kg/ha)?
A: The IPOHE herbicidal rating was 9.0.

Q: What about the GLXMAW rating ([6]; 0.0156 kg/ha) of the same compound?
A: The GLXMAW rating was 0.0.

Q: What about the GLXMAW rating ([6]; 0.0313 kg/ha) of the same compound?
A: The GLXMAW rating was 0.0.

Q: What about the GLXMAW rating ([6]; 0.0625 kg/ha) of the same compound?
A: The GLXMAW rating was 0.0.

Q: And the GLXMAW rating ([6]; 0.1250 kg/ha)?
A: Its GLXMAW rating is 0.0.

Q: What about the GLXMAW rating ([6]; 0.2500 kg/ha) of the same compound?
A: The GLXMAW rating was 5.0.

Q: What about the AMBEL rating (AMBEL (Ragweed, Common) [7]; 0.0156 kg/ha) of the same compound?
A: The AMBEL rating was 0.0.

Q: And the AMBEL rating (AMBEL (Ragweed, Common) [7]; 0.0313 kg/ha)?
A: Its AMBEL rating is 2.0.

Q: And the AMBEL rating (AMBEL (Ragweed, Common) [7]; 0.0625 kg/ha)?
A: The AMBEL rating was 3.0.

Q: And the AMBEL rating (AMBEL (Ragweed, Common) [7]; 0.1250 kg/ha)?
A: The AMBEL rating was 9.0.

Q: And the AMBEL rating (AMBEL (Ragweed, Common) [7]; 0.2500 kg/ha)?
A: Its AMBEL rating is 9.0.

Q: What about the CASOB rating (CASOB (Sicklepod); 0.0156 kg/ha) of the same compound?
A: Its CASOB rating is 0.0.

Q: What about the CASOB rating (CASOB (Sicklepod); 0.0313 kg/ha) of the same compound?
A: Its CASOB rating is 0.0.

Q: And the CASOB rating (CASOB (Sicklepod); 0.0625 kg/ha)?
A: The CASOB rating was 3.0.

Q: And the CASOB rating (CASOB (Sicklepod); 0.1250 kg/ha)?
A: The CASOB rating was 9.0.

Q: And the CASOB rating (CASOB (Sicklepod); 0.2500 kg/ha)?
A: Its CASOB rating is 9.0.

Q: And the GALAP rating (GALAP (Galium); 0.0156 kg/ha)?
A: The GALAP rating was 0.0.

Q: What about the GALAP rating (GALAP (Galium); 0.0313 kg/ha) of the same compound?
A: Its GALAP rating is 0.0.

Q: What about the GALAP rating (GALAP (Galium); 0.0625 kg/ha) of the same compound?
A: Its GALAP rating is 0.0.

Q: And the GALAP rating (GALAP (Galium); 0.1250 kg/ha)?
A: The GALAP rating was 9.0.

Q: And the GALAP rating (GALAP (Galium); 0.2500 kg/ha)?
A: Its GALAP rating is 9.0.

Q: What about the SETVI rating (SETVI (Foxtail, Green); 0.0156 kg/ha) of the same compound?
A: Its SETVI rating is 0.0.

Q: What about the SETVI rating (SETVI (Foxtail, Green); 0.0313 kg/ha) of the same compound?
A: Its SETVI rating is 0.0.

Q: And the SETVI rating (SETVI (Foxtail, Green); 0.0625 kg/ha)?
A: Its SETVI rating is 7.0.

Q: And the SETVI rating (SETVI (Foxtail, Green); 0.1250 kg/ha)?
A: The SETVI rating was 9.0.

Q: And the SETVI rating (SETVI (Foxtail, Green); 0.2500 kg/ha)?
A: The SETVI rating was 9.0.

— patent US20020137929A1, “1 - (3-heterocyclylphenyl) isothiourea, -isourea, -guanidine and -amidine herbicidal agents” (Intellectual Property Department, BASF Aktiengesellschaft, priority 1998, published 2002)
